From patent US20130259844A1, “Fermented Foodstuff” (University of Plymouth, priority 2010, published 2013)

What was measured:
[1] = Fermentation of first milk substrate (dried skimmed milk powder), pH monitoring; conditions: incubated at 30° C.
Procedure: (§1) Lactic acid producing bacteria listed in Table 1 were tested for their ability to ferment two milk substrates according to the following procedures:
(§2) A commercially available dried skimmed milk powder was prepared according to the manufacturer's instructions to provide a first milk substrate. A milk replacer for calves (70 g) was mixed with water (100 g) to provide a second milk substrate. Both substrates were placed in a steamer for 30 minutes/day for each of 3 days for sterilisation.
(§3) Each lactic acid producing bacteria was grown in MRS broth (ex Oxoid) for 24 hours at 37° C.
(§4) 100 ml of each milk substrate was inoculated with 100 μl of the culture of each lactic acid producing bacteria. The samples were incubated at 30° C. for 48 hours. The ability of the bacteria to ferment the milk substrate was determined by monitoring the pH at intervals during the incubation of 0, 8, 24, 32 and 48 hours, with a reduction in the pH indicating the production of lactic acid. The results for the first and second milk substrates are set out in Tables 3 and 4 respectively.

[2] = Fermentation of second milk substrate (milk replacer for calves), pH monitoring; conditions: incubated at 30° C.
Procedure: as §1, §2, §3, §4

Substance | pH ([1]; 0 h) | pH ([1]; 8 h) | pH ([1]; 24 h) | pH ([1]; 32 h) | pH ([1]; 48 h) | pH ([2]; 0 h) | pH ([2]; 8 h) | pH ([2]; 24 h) | pH ([2]; 32 h) | pH ([2]; 48 h)
Lactobacillus plantarum [NCIMB 41605] | 6.69 | 6.65 | 6.09 | 5.22 | 4.60 | 6.13 | 6.46 | 6.51 | 5.90 | 5.72
Lactobacillus plantarum [NCIMB 41607] | 6.69 | 6.62 | 5.83 | 5.08 | 4.53 | 5.54 | 5.69 | 5.75 | 5.61 | 4.80
Lactobacillus plantarum [NCIMB 41608] | 6.69 | 6.65 | 5.85 | 4.96 | 4.45 | 6.12 | 6.44 | 6.50 | 6.25 | 5.71
Lactobacillus salivarius ss. Salivarius [NCIMB 41606] | 6.69 | 6.61 | 5.55 | 4.76 | 4.35 | 5.82 | 6.03 | 6.01 | 5.92 | 5.37
Lactobacillus salivarius ss. Salivarius [NCIMB 41609] | 6.69 | 6.62 | 5.72 | 4.98 | 4.56 | 5.55 | 5.69 | 5.70 | 5.58 | 4.93
Lactobacillus salivarius ss. Salivarius [NCIMB 41610] | 6.69 | 6.68 | 5.69 | 4.96 | 4.46 | 5.55 | 5.67 | 5.72 | 5.54 | 4.76
